Reference: US7390826B2, “Inhibitors of animal cell motility and growth” (The Board of Trustees of The University of Illinois, priority 2002, dated 2008)
Like-named read-outs stand apart in the source and are kept apart here.

How the values were obtained:
Xenopus laevis embryos = assay: frog embryo morphogenesis assay (scoring of developmental defects); assay type: in vivo; conditions: Xenopus laevis, read-out: EC50 with respect to the defective phenotype at 72 hr following treatment
From the text: In order to identify compounds that specifically perturb morphogenesis in the frog embryo, a suitable method for scoring embryos by characteristic defects was developed. A useful starting point was the “dorso-anterior index” (DAI). The DAI originally was constructed by adding new morphological characteristics to the older “index of axis deficiency” (S. R. Scharf et al., Dev. Biol., 99, 75-87 (1983)). The DAI is a scale of dorsoanterior development wherein embryos are assigned a score based on degree of dorsoanterior phenotype (K. R. Kao et al., Dev. Biol., 127, 64-77 (1988)). The scale encompasses a score of 0 (for the most axis-deficient or ventralized embryos) to 10 (for embryos with the most enhanced dorsoanterior structures), with a score of 5 signifying a normal embryo.
Because the DAI focuses only on dorsoanterior phenotypes, other categories were added to describe possible defects more comprehensively, with an emphasis on characteristics that are easily and unambiguously recognized in intact embryos, and that are diagnostic of possible effects on morphogenesis during gastrulation and neurulation. The most useful and readily scored categories that covered the most frequent deficiencies were: reduced anterior structures and microcephaly, delayed appearance or absence of eye pigmentation, overall shortness along the anteroposterior axis, bent axis, bent tail only, reduced posterior structures/tail, malformed or reduced fins, delayed or failed neural tube closure (neural fold fusion), abnormal pigmentation pattern, ventral swelling (edema), and delayed or abnormal visceral organogenesis and yolk resorption. In addition, blastopore closure, an earlier process that marks the completion of gastrulation, was observed.
In these tests, test compounds were added individually to wells each containing 4-8 embryos in 12-well plates. Embryos at stage 8.5-9, according to the classification of Nieuwkoop and Faber (P. I. Nieuwkoop et al., Normal Table of Xenopus laevis (Daudin). Amsterdam: North-Holland Publ.) (1967)), were used because these are late blastula stages before gastrulation begins at stage 10, which allowed focusing primarily on compounds that affect morphogenetic events in gastrulation and neurulation. These embryos, therefore, have undergone a midblastula transition at stage 8 (cleavage division 12) when zygotic transcription begins (J. Newport et al., Cell, 30, 675-686 (1982); J. Newport et al., Cell, 30, 687-696 (1982)) but have not yet started the morphogenetic movements of gastrulation.
Standard procedures were used in the care of animals, gamete preparation, fertilization of oocytes, and culture of embryos (B. K. Kay et al., Methods in Cell Biology, Volumn 36 (San Diego: Academic Press, Inc.) (1991)). In order to stimulate ovulation, female frogs were injected with 500 units of human chorionic gonadotropin (HCG). Eggs were squeezed from female frogs 12 hours later. Testes were removed from euthanized male frogs that had been primed with 50 units of HCG 4-6 hours earlier. The testes were stored at 4° C. in single strength Marc's Modified Ringer's solution with 50 μg/ml gentamycin and used for no more than 10 days. Small pieces of testes were macerated and spread over eggs for in vitro fertilization in Petri dishes. Fertilized eggs were placed in one-tenth strength Modified Barth's Saline (MBS) with 50 μg/ml gentamycin at constant temperature (19° C.) in a temperature-controlled incubator and development allowed to proceed under these conditions. Embryos were dejellied by briefly swirling them in a solution of 2% (w/v) L-cysteine, pH 8.0. The embryos then were rinsed extensively with one-tenth strength MBS to wash out the cysteine. Experiments were started within an hour of dejellying the embryos.
Experiments were carried out in 12-well flat-bottom polystyrene plates with 4-8 embryos per well in 1.0 ml of one-tenth strength MBS with 50 μg/ml gentamycin at 19° C. […]

[1] = solubility in carrier solvent; assay type: physicochemical
Procedure: Experiments were carried out in 12-well flat-bottom polystyrene plates with 4-8 embryos per well in 1.0 ml of one-tenth strength MBS with 50 μg/ml gentamycin at 19° C. Staging of embryos was done according to the classification of Nieuwkoop and Faber. Embryos at stage 8.5-9 (late blastula stages prior to the debut of gastrulation at stage 10) or at the 2-cell stage (after the first cleavage division, Nieuwkoop and Faber stage 2), as indicated in the figures, were treated with a test compound or dimethylsulfoxide (DMSO) carrier solvent and maintained at 19° C. […] DMSO alone at this concentration had no detectable effect on the embryos. […] As with 0.1% DMSO, this concentration of DMF had no effect on development of the frog embryos. Each experiment was conducted in triplicate on at least three separate occasions for a total of 9 or more wells per treatment. Embryos were observed using a stereomicroscope and scored for defects or delayed development at set times (0, 3, 6, 9, 12, 24, 48, 72, and 96 hours) following treatment.

MDCK cells = assay: MDCK cell proliferation; assay type: cell-based, canine
Procedure: In FIG. 2A, cells were plated at low cell density (1×10^4 cells/mL) and allowed to attach and begin to grow for 48 hours prior to the start of experiment. The treatments were 0.1% DMSO (control, n=9 cultures), 50 μM compound 1 (n=8), or 50 μM compound 11 (n=7). Reported values are mean with SEM of the percent increase in cell number from 0 to 48 hours after addition of compound 1.
The values were mean with SEM of the percent increase in cell number another 48 hours after replacement of medium containing 50 μM compound 1 (n=8 cultures) or 0.1% DMSO (n=9) with fresh medium containing 0.1% DMSO.
MDCK cell proliferation: MDCK cells were plated on multiwell tissue culture plates at low density ([…]). Cells were allowed to attach and begin to grow for 48 hours before the start of the experiment. Fresh medium with or without compound was then added, and cells were incubated for 48 hours. At both 0 and 48 hours, some of the parallel wells for control and compound treatments were washed twice with PBS and treated with trypsin/EDTA solution to detach the cells. An equal volume of medium was added, cells were collected and counted using a hemacytometer. For reversibility, some of the parallel cultures for both control and compound treatments were grown another 48 hours after washing twice with PBS and replacing medium with fresh compound-free medium. At both the time of washing out and 48 hours later, some of the parallel wells for control and compound treatments were washed twice with PBS, detached from the plates with trypsin/EDTA solution, and the number of cells was counted.

MDCK cell wounds = assay: lamellipodial density at the margin of MDCK cell wounds; assay type: cell-based, canine; set-up: key to Lamellipodial Density: lamellipodial protrusions per unit margin perimeter length; conditions: 50 μM, mean ± SEM, * p<0.05 vs control
Procedure: Lamellipodial protrusion is known to drive most forms of animal cell crawling. At any given time in the migrating cell sheet, some cells are extending lamellipodia at the margin while others are not. […] Therefore, inhibition of cell sheet migration by compound 1 at least in part is attributed to reduced formation of lamellipodia at the would margin.
Lamellipodial density at the margin of MDCK cell wounds was determined under the following treatment conditions: 0.1% DMSO (control, n=25 wounded monolayers), 50 μM compound 1 (n=19), or 50 μM compound 11 (n=10). Lamellipodial density is the number of lamellipodial protrusions detected at the wound margin until closure for the times indicated divided by margin perimeter length. Values are mean±SEM.
(§1) Wound closure assay and compound screening: MDCK cells were plated on multiwell tissue culture plates and cultured at 37° C. and 5% CO2 with medium changes every two days until confluent. When the cultures reached confluence, medium was changed again and all experimental treatments were begun a day later. Compounds were solubilized in dimethyl sulfoxide (DMSO) and added with fresh-medium to cell cultures at initial screening concentrations of 10 and 100 μM. Controls consisted of parallel wells to-which DMSO solvent carrier alone was added at the same concentration as that added with experimental treatments (not exceeding 0.1% (v/v)). DMSO alone at this concentration had no detectable effect on the cells. Monolayers were scraped 30 min later with a micropipette and ultramicro tips, allowing small wounds of consistent size to be generated. Progress of wound closure was examined at set time intervals following wounding by microscope, and inhibitory or acceleratory effects on wound closure relative to parallel controls noted. […] Digital images of the wounded monolayers were taken every 2 hours for 18 hours, and then at 30, 36, 54, 60, and 72 hours following wounding. The number of lamellipodia at the wound margin was also counted at these times.

[2] = system: Madin-Darby canine kidney (MDCK) cell monolayers; assay: scrape-wound closure assay in MDCK cell monolayers; assay type: cell-based; conditions: even at the highest concentration tested (500 μM)
From the text: A method of determining the ability of a compound to inhibit or accelerate cell motility is a scrape-wound closure assay using cultured mammalian epithelial cell monolayers. Mechanical scraping of the epithelial monolayer induces cell sheet migration into the resulting gap, a phenomenon characteristic of wounded epithelia and mechanistically related to normal epithelial movements during embryonic morphogenesis (A. Jacinto et al., Nat. Cell Biol, 3, E117 (2001)). Epithelial cell sheet migration in this method proceeds by a Rac- and phosphoinositide-dependent cell crawling mechanism resembling the motility of other animal cells that move as individuals rather than as cell sheets (G. Fenteany et al., Curr. Biol., 10, 831 (2000)).
Wound closure in MDCK cell monolayers primarily involves cell spreading and motility rather than proliferation based on observations and treatments that block cell growth without inhibiting closure. However, after closure is complete and the gap is covered, cell division is observed in the former wound area, presumably as part of a homeostatic mechanism to regain the original cell density (M. F. Olson et al., Science, 269, 1270 (1995)). Wound closure involves Rac- and phosphoinositide-dependent actin polymerization and protrusion-driven cell crawling behavior, where force generation for movement is distributed from the wound margin to several rows of cells behind the margin. Accordingly, this method is excellent for determining whether a compound affects cell motility.
Cell culture conditions: Madin-Darby canine kidney (MDCK) cells (American Type Culture Collection cell line CCL-34) were cultured in Minimum Essential Medium (with Earle's balanced salts, non-essential amino acids, L-glutamine and sodium pyruvate) supplemented with 10% newborn calf serum at 37° C. and 5% carbon dioxide (CO2). Main cultures were grown in either […] tissue culture flasks with medium changes every two days. When cultures were about 75% confluent, cells were passaged by rinsing twice with single strength phosphate buffered saline (PBS) and treating with a solution of 0.05% (w/v) trypsin/0.02% (w/v) ethylenediaminetetraacetic acid (EDTA) in PBS to detach cells from the flasks. After cells were detached, an equal volume of serum-containing medium was added to inhibit the trypsin and cell density was determined using a hemacytometer. Cells were replated following dilution in fresh medium on new tissue culture flasks for continued culture and multiwell tissue culture plates for experiments. No culture used exceeded 15 passages. Experimental cultures were grown in 12-, 24-, 48-, or 96-well tissue culture plates with medium changes every two days.
as §1, with “times. […]” for “times.”

[3] = 72 hr after treatment, dose-response, 5 concentrations

SMILES | EC50 (Xenopus laevis embryos; 72 h) [µM] | EC50 (Xenopus laevis embryos; [3]) [µM] | also measured
C/C=C\C(=O)N1C(=O)OC[C@@H]1Cc1ccccc1 [Compound 17] | 19.1 | – | –
C/C=C/C(=O)N1C(=O)OC[C@@H]1C(C)C [Compound 15] | 25.9 | – | –
C=CC(=O)N1C(=O)OC[C@@H]1Cc1ccccc1 [Compound 52] | 6.1 | – | –
C/C=C/C(=O)N1CCOC1=O [Compound 6] | 39.1 | – | –
CCCCC/C=C/C(=O)N1C(=O)OC[C@@H]1Cc1ccccc1 [Compound 23] | – | 58.1 | –
C/C=C/C(=O)N1C(=O)OC[C@H]1Cc1ccccc1 [Compound 45] | 8.9 | – | –
CC#CC(=O)N1C(=O)OC[C@@H]1Cc1ccccc1 [Compound 31] | – | 5.9 | –
O=C(/C=C/c1c(F)c(F)c(F)c(F)c1F)N1C(=O)OC[C@@H]1Cc1ccccc1 [Compound 22] | – | – | solubility in DMF versus DMSO [1]: more soluble in DMF
O=C(/C=C/c1cccc(F)c1)N1C(=O)OC[C@@H]1Cc1ccccc1 [Compound 33] | – | 47.6 | –
O=C(/C=C/c1ccc(O)cc1)N1C(=O)OC[C@@H]1Cc1ccccc1 [Compound 41] | – | 27.1 | solubility in DMF versus DMSO [1]: more soluble in DMF
CCCC(=O)N1C(=O)OC[C@@H]1Cc1ccccc1 [Compound 11] | – | – | inhibition of MDCK cell proliferation (percent increase in cell number) (MDCK cells; 50 μM, 0 to 48 hours): not; bioactivity in cell proliferation assay (MDCK cells; even at the highest concentration tested (500 μM)): no statistically significant bioactivity; Lamellipodial Density (MDCK cell wounds; 2 hours): 0.563 ± 0.148; Lamellipodial Density (MDCK cell wounds; 4 hours): 1.139 ± 0.270; Lamellipodial Density (MDCK cell wounds; 6 hours): 1.289 ± 0.276; Lamellipodial Density (MDCK cell wounds; 8 hours): 1.196 ± 0.312; Lamellipodial Density (MDCK cell wounds; 10 hours): 1.609 ± 0.357; Lamellipodial Density (MDCK cell wounds; 12 hours): 1.368 ± 0.309; bioactivity in wound closure assay [2]: no statistically significant bioactivity
C/C=C/C(=O)N1C(=O)OC[C@@H]1c1ccccc1 [Compound 30] | 10.1 | – | –
O=C(/C=C/c1cccc(C(F)(F)F)c1)N1C(=O)OC[C@@H]1Cc1ccccc1 [Compound 54] | – | 30.4 | –
C/C=C/C(=O)N1C(=O)O[C@@H](c2ccccc2)[C@@H]1C [Compound 25] | 13.9 | – | –
C/C=C/C(=O)N1C(=O)O[C@H](c2ccccc2)[C@H]1C [Compound 26] | 12.7 | – | –
CC/C=C/C(=O)N1C(=O)OC[C@@H]1Cc1ccccc1 [Compound 13] | – | 54.6 | –
